# How the values were obtained:
# SH-SY5Y [1] = assay: Induction of apoptosis in human SH-SY5Y cells assessed as necrotic cells at 5 uM after 24 hrs by Annexin V-FITC/propidium iodide staining based flow cytometry (reference value: 2.9%); assay type: functional
# SH-SY5Y [2] = assay: Cell cycle arrest in human SH-SY5Y assessed as accumulation at G0/G1 phase at 5 uM after 24 hrs by propidium iodide staining based flow cytometry (reference value: 61.80%); assay type: functional
# SH-SY5Y [3] = assay: Induction of apoptosis in human SH-SY5Y cells assessed as late apoptotic cells at 5 uM after 24 hrs by Annexin V-FITC/propidium iodide staining based flow cytometry (reference value: 5.7%); assay type: functional
# SH-SY5Y [4] = assay: Cell cycle arrest in human SH-SY5Y assessed as accumulation at G0/G1 phase at 1.25 uM after 24 hrs by propidium iodide staining based flow cytometry (reference value: 61.80%); assay type: functional
# SH-SY5Y [5] = assay: Induction of apoptosis in human SH-SY5Y cells assessed as viable cells at 5 uM after 24 hrs by Annexin V-FITC/propidium iodide staining based flow cytometry (reference value: 88.2%); assay type: functional; details: read-out: Activity
# [6] = biological target: Lysine-specific histone demethylase 1A (Homo sapiens, UniProt O60341); assay: Inhibition of recombinant LSD1 (157 to 852 amino acids) (unknown origin) expressed in Escherichia coli BL21(DE) using H3K4me2 substrate
# SH-SY5Y [7] = assay: Induction of apoptosis in human SH-SY5Y cells assessed as early apoptotic cells at 20 uM after 24 hrs by Annexin V-FITC/propidium iodide staining based flow cytometry (reference value: 3.3%); assay type: functional
# SH-SY5Y [8] = assay: Induction of apoptosis in human SH-SY5Y cells assessed as necrotic cells at 1.25 uM after 24 hrs by Annexin V-FITC/propidium iodide staining based flow cytometry (reference value: 2.9%); assay type: functional
# SH-SY5Y [9] = assay: Cell cycle arrest in human SH-SY5Y assessed as accumulation at G2/M phase at 1.25 uM after 24 hrs by propidium iodide staining based flow cytometry (reference value: 14.53%); assay type: functional
# SH-SY5Y [10] = assay: Cell cycle arrest in human SH-SY5Y assessed as accumulation at S phase at 1.25 uM after 24 hrs by propidium iodide staining based flow cytometry (reference value: 21.34%); assay type: functional
# MCF7 = assay: cells; details: Homo sapiens, MCF7, 72 h
# Description: Antiproliferative activity against human MCF7 cells assessed as cell growth inhibition after 72 hrs by MTT assay
# SH-SY5Y [11] = assay: Induction of apoptosis in human SH-SY5Y cells assessed as reduction in mitochondrial membrane potential after 24 hrs by JC-1 staining based flow cytometry; assay type: functional, cell-based
# SH-SY5Y [12] = assay: Induction of apoptosis in human SH-SY5Y cells assessed as viable cells at 10 uM after 24 hrs by Annexin V-FITC/propidium iodide staining based flow cytometry (reference value: 88.2%); assay type: functional; details: read-out: Activity
# SH-SY5Y [13] = assay: Cell cycle arrest in human SH-SY5Y assessed as accumulation at G0/G1 phase at 2.5 uM after 24 hrs by propidium iodide staining based flow cytometry (reference value: 61.80%); assay type: functional
# SH-SY5Y [14] = assay: Induction of apoptosis in human SH-SY5Y cells assessed as necrotic cells at 20 uM after 24 hrs by Annexin V-FITC/propidium iodide staining based flow cytometry (reference value: 2.9%); assay type: functional
# SH-SY5Y [15] = assay: Cell cycle arrest in human SH-SY5Y assessed as accumulation at G2/M phase after 24 hrs by propidium iodide staining based flow cytometry; assay type: functional
# SH-SY5Y [16] = assay: Induction of apoptosis in human SH-SY5Y cells assessed as necrotic cells at 10 uM after 24 hrs by Annexin V-FITC/propidium iodide staining based flow cytometry (reference value: 2.9%); assay type: functional
# [17] = Antiproliferative activity against human U87 cells assessed as cell growth inhibition after 72 hrs by MTT assay; assay type: functional, cell-based, U-87MG ATCC; details: U-87 MG
# SH-SY5Y [18] = assay: Induction of apoptosis in human SH-SY5Y cells assessed as reduction in mitochondrial membrane potential at 5 uM after 24 hrs by JC-1 staining based flow cytometry (reference value: 5.1%); assay type: functional; set-up: scale not given: the % may be the effect or the level left
# SH-SY5Y [19] = assay: Induction of apoptosis in human SH-SY5Y cells assessed as late apoptotic cells at 1.25 uM after 24 hrs by Annexin V-FITC/propidium iodide staining based flow cytometry (reference value: 5.7%); assay type: functional
# SH-SY5Y [20] = assay: Cell cycle arrest in human SH-SY5Y assessed as accumulation at G2/M phase at 5 uM after 24 hrs by propidium iodide staining based flow cytometry (reference value: 14.53%); assay type: functional
# SH-SY5Y [21] = assay: Induction of apoptosis in human SH-SY5Y cells assessed as viable cells at 2.5 uM after 24 hrs by Annexin V-FITC/propidium iodide staining based flow cytometry (reference value: 88.2%); assay type: functional; details: read-out: Activity
# SH-SY5Y [22] = assay: Induction of apoptosis in human SH-SY5Y cells assessed as necrotic cells at 2.5 uM after 24 hrs by Annexin V-FITC/propidium iodide staining based flow cytometry (reference value: 2.9%); assay type: functional
# SH-SY5Y [23] = assay: Induction of apoptosis in human SH-SY5Y cells assessed as early apoptotic cells at 10 uM after 24 hrs by Annexin V-FITC/propidium iodide staining based flow cytometry (reference value: 3.3%); assay type: functional
# SH-SY5Y [24] = assay: Induction of apoptosis in human SH-SY5Y cells assessed as early apoptotic cells at 2.5 uM after 24 hrs by Annexin V-FITC/propidium iodide staining based flow cytometry (reference value: 3.3%); assay type: functional
# [25] = Antiproliferative activity against human MGC803 cells assessed as cell growth inhibition after 72 hrs by MTT assay; assay type: functional, cell-based; details: MGC-803, 72 h
# SH-SY5Y [26] = assay: Cell cycle arrest in human SH-SY5Y assessed as accumulation at S phase at 5 uM after 24 hrs by propidium iodide staining based flow cytometry (reference value: 21.34%); assay type: functional
# SH-SY5Y [27] = assay: Cell cycle arrest in human SH-SY5Y assessed as accumulation at S phase at 2.5 uM after 24 hrs by propidium iodide staining based flow cytometry (reference value: 21.34%); assay type: functional
# SH-SY5Y [28] = assay: Induction of apoptosis in human SH-SY5Y cells assessed as viable cells at 1.25 uM after 24 hrs by Annexin V-FITC/propidium iodide staining based flow cytometry (reference value: 88.2%); assay type: functional; details: read-out: Activity
# SH-SY5Y [29] = assay: Induction of apoptosis in human SH-SY5Y cells assessed as early apoptotic cells at 5 uM after 24 hrs by Annexin V-FITC/propidium iodide staining based flow cytometry (reference value: 3.3%); assay type: functional
# SH-SY5Y [30] = assay: Cell cycle arrest in human SH-SY5Y assessed as accumulation at G2/M phase at 2.5 uM after 24 hrs by propidium iodide staining based flow cytometry (reference value: 14.53%); assay type: functional
# SH-SY5Y [31] = assay: Induction of apoptosis in human SH-SY5Y cells assessed as late apoptotic cells at 2.5 uM after 24 hrs by Annexin V-FITC/propidium iodide staining based flow cytometry (reference value: 5.7%); assay type: functional
# SH-SY5Y [32] = assay: Induction of apoptosis in human SH-SY5Y cells assessed as reduction in mitochondrial membrane potential at 10 uM after 24 hrs by JC-1 staining based flow cytometry (reference value: 5.1%); assay type: functional; set-up: scale not given: the % may be the effect or the level left
# SH-SY5Y [33] = assay: Induction of apoptosis in human SH-SY5Y cells assessed as late apoptotic cells at 10 uM after 24 hrs by Annexin V-FITC/propidium iodide staining based flow cytometry (reference value: 5.7%); assay type: functional
# SH-SY5Y [34] = assay: Induction of apoptosis in human SH-SY5Y cells assessed as late apoptotic cells at 20 uM after 24 hrs by Annexin V-FITC/propidium iodide staining based flow cytometry (reference value: 5.7%); assay type: functional
# SH-SY5Y [35] = assay: Antiproliferative activity against human SH-SY5Y cells assessed as cell growth inhibition after 72 hrs by MTT assay; assay type: functional, cell-based
# [36] = Antiproliferative activity against human EC109 cells assessed as cell growth inhibition after 72 hrs by MTT assay; assay type: functional, cell-based; details: ECa-109, 72 h
# SH-SY5Y [37] = assay: Induction of apoptosis in human SH-SY5Y cells assessed as early apoptotic cells at 1.25 uM after 24 hrs by Annexin V-FITC/propidium iodide staining based flow cytometry (reference value: 3.3%); assay type: functional
# SH-SY5Y [38] = assay: Induction of apoptosis in human SH-SY5Y cells assessed as reduction in mitochondrial membrane potential at 2.5 uM after 24 hrs by JC-1 staining based flow cytometry (reference value: 5.1%); assay type: functional; set-up: scale not given: the % may be the effect or the level left
# SH-SY5Y [39] = assay: Induction of apoptosis in human SH-SY5Y cells after 24 hrs by Annexin V-FITC/propidium iodide staining based flow cytometry; assay type: functional, cell-based
# SH-SY5Y [40] = assay: Induction of apoptosis in human SH-SY5Y cells assessed as viable cells at 20 uM after 24 hrs by Annexin V-FITC/propidium iodide staining based flow cytometry (reference value: 88.2%); assay type: functional; details: read-out: Activity
smiles,measurement,setting,value
C[C@]12CC[C@H](OC(=O)Cn3cc(CN4C(=O)C(=O)c5c(Cl)ccc(Cl)c54)nn3)CC1=CC[C@@H]1[C@@H]2CC[C@]2(C)C(=O)CC[C@@H]12,Activity,SH-SY5Y [1],7.4%
same,Activity,SH-SY5Y [2],52.33%
same,Activity,SH-SY5Y [3],41.4%
same,Activity,SH-SY5Y [4],50.31%
same,viability at 5 µM,SH-SY5Y [5],32.4%
same,IC50,[6],3.18 µM
same,Activity,SH-SY5Y [7],32.6%
same,Activity,SH-SY5Y [8],5.3%
same,Activity,SH-SY5Y [9],21.31%
same,Activity,SH-SY5Y [10],24.78%
same,IC50,MCF7,32.2 µM
same,Activity,SH-SY5Y [11],Dose-dependent effect
same,viability at 10 µM,SH-SY5Y [12],0.8%
same,Activity,SH-SY5Y [13],45.36%
same,Activity,SH-SY5Y [14],0.8%
same,Activity,SH-SY5Y [15],Dose-dependent effect
same,Activity,SH-SY5Y [16],0.5%
same,IC50,[17],9.57 µM
same,Activity,SH-SY5Y [18],29.8%
same,Activity,SH-SY5Y [19],8.4%
same,Activity,SH-SY5Y [20],27.74%
same,viability at 2.5 µM,SH-SY5Y [21],81.4%
same,Activity,SH-SY5Y [22],1.6%
same,Activity,SH-SY5Y [23],39%
same,Activity,SH-SY5Y [24],10.6%
same,IC50,[25],5.95 µM
same,Activity,SH-SY5Y [26],12.48%
same,Activity,SH-SY5Y [27],23.48%
same,viability at 1.25 µM,SH-SY5Y [28],80.3%
same,Activity,SH-SY5Y [29],18.9%
same,Activity,SH-SY5Y [30],23.88%
same,Activity,SH-SY5Y [31],6.4%
same,Activity,SH-SY5Y [32],40.1%
same,Activity,SH-SY5Y [33],59.7%
same,Activity,SH-SY5Y [34],65.7%
same,IC50,SH-SY5Y [35],4.06 µM
same,IC50,[36],20.8 µM
same,Activity,SH-SY5Y [37],6.1%
same,Activity,SH-SY5Y [38],9%
same,Activity,SH-SY5Y [39],Dose-dependent effect
same,viability at 20 µM,SH-SY5Y [40],1%
C[C@]12CC[C@H](OC(=O)Cn3cc(CN4C(=O)C(=O)c5cc(Cl)ccc54)nn3)CC1=CC[C@@H]1[C@@H]2CC[C@]2(C)C(=O)CC[C@@H]12,IC50,MCF7,> 128 µM
same,IC50,[17],47.9 µM
same,IC50,[25],57.8 µM
same,IC50,SH-SY5Y [35],7.32 µM
same,IC50,[36],61.7 µM
